Test results taken from ChEMBL document CHEMBL5723584 (2023).

What was measured:
Conditions in all cases: Compound concentration 1.0 uM
[1] = molecular target: cGMP-dependent protein kinase 1 (Homo sapiens) (UniProt Q13976); assay: activity of PKG1beta(h) at 1.0 µM in the Eurofins Kinase panel
[2] = molecular target: Serine/threonine-protein kinase MARK2 (Homo sapiens) (UniProt Q7KZI7); assay: activity of PAR-1Balpha(h) at 1.0 µM in the Eurofins Kinase panel
[3] = molecular target: Ribosomal protein S6 kinase alpha-5 (Homo sapiens) (UniProt O75582); assay: activity of MSK1(h) at 1.0 µM in the Eurofins Kinase panel
[4] = molecular target: Aurora kinase A (Homo sapiens) (UniProt O14965); assay: activity of Aurora-A(h) at 1.0 µM in the Eurofins Kinase panel
Sequence of Aurora kinase A (Homo sapiens) (O14965 whole entry): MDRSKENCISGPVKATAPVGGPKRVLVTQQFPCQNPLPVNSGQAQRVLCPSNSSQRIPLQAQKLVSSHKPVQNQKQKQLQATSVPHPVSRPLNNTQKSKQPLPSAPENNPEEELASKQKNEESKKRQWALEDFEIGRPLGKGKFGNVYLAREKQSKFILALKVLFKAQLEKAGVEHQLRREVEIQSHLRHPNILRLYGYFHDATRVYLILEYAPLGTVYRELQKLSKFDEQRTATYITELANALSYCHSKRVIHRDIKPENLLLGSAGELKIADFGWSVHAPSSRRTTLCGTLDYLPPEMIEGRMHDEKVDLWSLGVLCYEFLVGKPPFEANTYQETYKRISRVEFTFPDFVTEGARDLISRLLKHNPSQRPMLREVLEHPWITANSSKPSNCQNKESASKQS

[5] = molecular target: SRSF protein kinase 2 (Homo sapiens) (UniProt P78362); assay: activity of SRPK2(h) at 1.0 µM in the Eurofins Kinase panel
[6] = molecular target: NT-3 growth factor receptor (Homo sapiens) (UniProt Q16288); assay: activity of TrkC(h) at 1.0 µM in the Eurofins Kinase panel
Sequence of NT-3 growth factor receptor (Homo sapiens) (Q16288 32-839 limits assumed): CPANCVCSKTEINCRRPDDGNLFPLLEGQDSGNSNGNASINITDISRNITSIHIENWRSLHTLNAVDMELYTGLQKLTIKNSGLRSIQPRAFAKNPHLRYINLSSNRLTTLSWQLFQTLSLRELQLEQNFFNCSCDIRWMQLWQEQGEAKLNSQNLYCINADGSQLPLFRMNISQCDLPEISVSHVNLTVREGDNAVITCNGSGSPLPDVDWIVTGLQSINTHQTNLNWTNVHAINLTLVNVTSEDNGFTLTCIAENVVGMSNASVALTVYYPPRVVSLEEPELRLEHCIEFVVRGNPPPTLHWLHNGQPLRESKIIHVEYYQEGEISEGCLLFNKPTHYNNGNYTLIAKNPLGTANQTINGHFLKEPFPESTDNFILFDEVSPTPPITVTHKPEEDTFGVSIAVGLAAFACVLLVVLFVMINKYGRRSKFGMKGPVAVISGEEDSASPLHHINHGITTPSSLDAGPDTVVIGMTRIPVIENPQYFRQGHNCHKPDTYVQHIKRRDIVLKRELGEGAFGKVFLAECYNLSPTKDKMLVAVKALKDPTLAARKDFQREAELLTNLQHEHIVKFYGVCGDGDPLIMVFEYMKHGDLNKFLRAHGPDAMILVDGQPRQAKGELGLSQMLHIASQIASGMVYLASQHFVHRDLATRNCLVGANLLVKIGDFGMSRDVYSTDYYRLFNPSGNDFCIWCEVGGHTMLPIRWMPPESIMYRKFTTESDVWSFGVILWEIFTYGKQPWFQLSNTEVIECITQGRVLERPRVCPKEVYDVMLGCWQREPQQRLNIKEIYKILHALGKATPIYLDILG

[7] = molecular target: Serine/threonine-protein kinase 10 (Homo sapiens) (UniProt O94804); assay: activity of LOK(h) at 1.0 µM in the Eurofins Kinase panel
[8] = molecular target: MAP kinase-activated protein kinase 2 (Homo sapiens) (UniProt P49137); assay: activity of MAPKAP-K2(h) at 1.0 µM in the Eurofins Kinase panel
Sequence of MAP kinase-activated protein kinase 2 (Homo sapiens) (P49137 whole entry, looked up): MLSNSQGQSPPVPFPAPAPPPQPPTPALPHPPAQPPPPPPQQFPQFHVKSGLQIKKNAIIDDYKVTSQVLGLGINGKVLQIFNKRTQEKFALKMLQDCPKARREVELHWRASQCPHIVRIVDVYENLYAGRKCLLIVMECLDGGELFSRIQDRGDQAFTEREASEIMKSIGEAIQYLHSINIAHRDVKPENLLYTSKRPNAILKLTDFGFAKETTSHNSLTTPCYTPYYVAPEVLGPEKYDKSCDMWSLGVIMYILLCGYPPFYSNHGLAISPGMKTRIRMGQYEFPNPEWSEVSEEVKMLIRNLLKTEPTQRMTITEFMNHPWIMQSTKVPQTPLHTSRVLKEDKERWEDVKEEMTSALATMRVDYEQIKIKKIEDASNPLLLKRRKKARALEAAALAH

[9] = molecular target: Macrophage colony-stimulating factor 1 receptor (Homo sapiens) (UniProt P07333); assay: activity of Fms(h) at 1.0 µM in the Eurofins Kinase panel
Sequence of Macrophage colony-stimulating factor 1 receptor (Homo sapiens) (P07333 whole entry): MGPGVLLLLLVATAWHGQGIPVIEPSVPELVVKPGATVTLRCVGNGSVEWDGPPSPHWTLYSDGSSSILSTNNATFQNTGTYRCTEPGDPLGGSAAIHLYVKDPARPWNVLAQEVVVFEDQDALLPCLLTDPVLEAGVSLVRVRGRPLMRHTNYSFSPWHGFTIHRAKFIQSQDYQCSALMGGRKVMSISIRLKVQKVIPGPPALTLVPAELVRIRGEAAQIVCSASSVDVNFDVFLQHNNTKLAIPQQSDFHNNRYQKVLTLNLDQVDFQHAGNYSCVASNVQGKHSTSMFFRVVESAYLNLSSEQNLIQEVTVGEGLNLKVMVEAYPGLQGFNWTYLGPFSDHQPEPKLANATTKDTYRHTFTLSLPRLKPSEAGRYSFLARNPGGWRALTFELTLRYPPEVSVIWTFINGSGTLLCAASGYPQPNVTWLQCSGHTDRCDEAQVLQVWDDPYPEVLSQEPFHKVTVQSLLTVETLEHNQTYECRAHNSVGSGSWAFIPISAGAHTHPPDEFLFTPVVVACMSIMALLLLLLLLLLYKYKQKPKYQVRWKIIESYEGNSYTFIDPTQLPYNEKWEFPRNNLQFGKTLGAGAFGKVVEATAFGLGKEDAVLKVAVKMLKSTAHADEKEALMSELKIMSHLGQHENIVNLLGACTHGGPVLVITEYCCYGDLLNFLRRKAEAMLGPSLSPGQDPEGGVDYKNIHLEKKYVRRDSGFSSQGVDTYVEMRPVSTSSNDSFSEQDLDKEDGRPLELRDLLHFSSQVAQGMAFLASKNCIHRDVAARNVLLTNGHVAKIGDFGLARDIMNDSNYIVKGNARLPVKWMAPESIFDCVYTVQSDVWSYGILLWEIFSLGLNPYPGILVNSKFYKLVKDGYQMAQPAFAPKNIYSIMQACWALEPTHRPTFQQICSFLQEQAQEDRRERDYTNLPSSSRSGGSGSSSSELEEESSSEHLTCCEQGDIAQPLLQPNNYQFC

[10] = molecular target: Serine/threonine-protein kinase 24 (Homo sapiens) (UniProt Q9Y6E0); assay: activity of MST3(h) at 1.0 µM in the Eurofins Kinase panel
[11] = molecular target: Calcium/calmodulin-dependent protein kinase type II subunit gamma (Homo sapiens) (UniProt Q13555); assay: activity of CaMKIIgamma(h) at 1.0 µM in the Eurofins Kinase panel
[12] = molecular target: cAMP-dependent protein kinase catalytic subunit PRKX (Homo sapiens) (UniProt P51817); assay: activity of PrKX(h) at 1.0 µM in the Eurofins Kinase panel
[13] = molecular target: PI3-kinase p110-alpha/p85-alpha (Homo sapiens) (UniProt P27986+P42336); assay: activity of PI3 Kinase (p110alpha/p85alpha)(h) at 1.0 µM in the Eurofins Kinase panel; assay type: protein-complex assay
[14] = molecular target: Ephrin type-B receptor 2 (Homo sapiens) (UniProt P29323); assay: activity of EphB2(h) at 1.0 µM in the Eurofins Kinase panel
[15] = molecular target: Non-receptor tyrosine-protein kinase TYK2 (Homo sapiens) (UniProt P29597); assay: activity of TYK2(h) at 1.0 µM in the Eurofins Kinase panel
Sequence of Non-receptor tyrosine-protein kinase TYK2 (Homo sapiens) (P29597 whole entry): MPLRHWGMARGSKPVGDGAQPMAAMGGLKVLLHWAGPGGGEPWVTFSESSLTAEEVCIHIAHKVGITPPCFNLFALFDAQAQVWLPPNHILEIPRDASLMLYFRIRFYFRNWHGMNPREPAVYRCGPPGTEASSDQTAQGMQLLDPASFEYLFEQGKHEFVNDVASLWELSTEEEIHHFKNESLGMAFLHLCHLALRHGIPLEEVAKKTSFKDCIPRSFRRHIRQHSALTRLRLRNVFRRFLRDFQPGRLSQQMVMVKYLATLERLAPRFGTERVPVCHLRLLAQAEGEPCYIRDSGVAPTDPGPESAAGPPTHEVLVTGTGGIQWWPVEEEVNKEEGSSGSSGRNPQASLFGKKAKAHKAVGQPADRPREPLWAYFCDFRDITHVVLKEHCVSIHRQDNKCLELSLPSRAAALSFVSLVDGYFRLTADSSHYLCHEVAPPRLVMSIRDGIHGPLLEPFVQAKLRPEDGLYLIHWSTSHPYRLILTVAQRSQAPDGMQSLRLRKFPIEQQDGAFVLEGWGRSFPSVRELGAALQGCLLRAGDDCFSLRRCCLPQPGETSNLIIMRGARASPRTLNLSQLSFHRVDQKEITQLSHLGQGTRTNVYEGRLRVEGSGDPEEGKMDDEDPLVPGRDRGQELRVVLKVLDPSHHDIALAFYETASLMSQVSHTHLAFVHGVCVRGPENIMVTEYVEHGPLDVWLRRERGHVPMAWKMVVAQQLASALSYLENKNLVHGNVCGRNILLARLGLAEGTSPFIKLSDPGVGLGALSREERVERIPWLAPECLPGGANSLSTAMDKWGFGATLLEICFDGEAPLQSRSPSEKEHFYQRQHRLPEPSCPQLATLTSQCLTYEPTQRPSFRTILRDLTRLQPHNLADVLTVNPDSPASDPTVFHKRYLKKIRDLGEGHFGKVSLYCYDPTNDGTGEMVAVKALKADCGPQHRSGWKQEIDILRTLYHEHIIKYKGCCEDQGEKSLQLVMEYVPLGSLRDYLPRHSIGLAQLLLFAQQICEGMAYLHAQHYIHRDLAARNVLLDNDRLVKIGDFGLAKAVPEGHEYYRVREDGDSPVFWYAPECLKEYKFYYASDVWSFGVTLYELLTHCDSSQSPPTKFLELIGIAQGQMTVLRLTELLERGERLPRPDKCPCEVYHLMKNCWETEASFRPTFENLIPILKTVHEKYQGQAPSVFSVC

[16] = molecular target: Protein kinase C delta type (Homo sapiens) (UniProt Q05655); assay: activity of PKCdelta(h) at 1.0 µM in the Eurofins Kinase panel
[17] = molecular target: Tyrosine-protein kinase Lyn (Homo sapiens) (UniProt P07948); assay: activity of Lyn(h) at 1.0 µM in the Eurofins Kinase panel
[18] = molecular target: G protein-coupled receptor kinase 3 (Homo sapiens) (UniProt P35626); assay: activity of GRK3(h) at 1.0 µM in the Eurofins Kinase panel
[19] = molecular target: Serine/threonine-protein kinase PLK4 (Homo sapiens) (UniProt O00444); assay: activity of Plk4(h) at 1.0 µM in the Eurofins Kinase panel
[20] = molecular target: Serine/threonine-protein kinase mTOR (Homo sapiens) (UniProt P42345); assay: activity of mTOR(h) at 1.0 µM in the Eurofins Kinase panel
[21] = molecular target: Proto-oncogene tyrosine-protein kinase receptor Ret (Homo sapiens) (UniProt P07949); assay: activity of Ret(h) at 1.0 µM in the Eurofins Kinase panel
[22] = molecular target: Activin receptor type-1-like (Homo sapiens) (UniProt P37023); assay: activity of ALK1(h) at 1.0 µM in the Eurofins Kinase panel
[23] = molecular target: Eukaryotic elongation factor 2 kinase (Homo sapiens) (UniProt O00418); assay: activity of eEF-2K(h) at 1.0 µM in the Eurofins Kinase panel
[24] = molecular target: Tyrosine-protein kinase ZAP-70 (Homo sapiens) (UniProt P43403); assay: activity of ZAP-70(h) at 1.0 µM in the Eurofins Kinase panel
[25] = molecular target: Mitogen-activated protein kinase kinase kinase 2 (Homo sapiens) (UniProt Q9Y2U5); assay: activity of MEKK2(h) at 1.0 µM in the Eurofins Kinase panel
[26] = molecular target: STE20-like serine/threonine-protein kinase (Homo sapiens) (UniProt Q9H2G2); assay: activity of SLK(h) at 1.0 µM in the Eurofins Kinase panel
[27] = molecular target: Eukaryotic translation initiation factor 2-alpha kinase 3 (Homo sapiens) (UniProt Q9NZJ5); assay: activity of PEK(h) at 1.0 µM in the Eurofins Kinase panel
[28] = molecular target: Serine/threonine-protein kinase TAO1 (Homo sapiens) (UniProt Q7L7X3); assay: activity of TAO1(h) at 1.0 µM in the Eurofins Kinase panel
[29] = molecular target: Platelet-derived growth factor receptor alpha (Homo sapiens) (UniProt P16234); assay: activity of PDGFRalpha(h) at 1.0 µM in the Eurofins Kinase panel
[30] = molecular target: Fibroblast growth factor receptor 4 (Homo sapiens) (UniProt P22455); assay: activity of FGFR4(h) at 1.0 µM in the Eurofins Kinase panel
Sequence of Fibroblast growth factor receptor 4 (Homo sapiens) (P22455 22-802 limits assumed): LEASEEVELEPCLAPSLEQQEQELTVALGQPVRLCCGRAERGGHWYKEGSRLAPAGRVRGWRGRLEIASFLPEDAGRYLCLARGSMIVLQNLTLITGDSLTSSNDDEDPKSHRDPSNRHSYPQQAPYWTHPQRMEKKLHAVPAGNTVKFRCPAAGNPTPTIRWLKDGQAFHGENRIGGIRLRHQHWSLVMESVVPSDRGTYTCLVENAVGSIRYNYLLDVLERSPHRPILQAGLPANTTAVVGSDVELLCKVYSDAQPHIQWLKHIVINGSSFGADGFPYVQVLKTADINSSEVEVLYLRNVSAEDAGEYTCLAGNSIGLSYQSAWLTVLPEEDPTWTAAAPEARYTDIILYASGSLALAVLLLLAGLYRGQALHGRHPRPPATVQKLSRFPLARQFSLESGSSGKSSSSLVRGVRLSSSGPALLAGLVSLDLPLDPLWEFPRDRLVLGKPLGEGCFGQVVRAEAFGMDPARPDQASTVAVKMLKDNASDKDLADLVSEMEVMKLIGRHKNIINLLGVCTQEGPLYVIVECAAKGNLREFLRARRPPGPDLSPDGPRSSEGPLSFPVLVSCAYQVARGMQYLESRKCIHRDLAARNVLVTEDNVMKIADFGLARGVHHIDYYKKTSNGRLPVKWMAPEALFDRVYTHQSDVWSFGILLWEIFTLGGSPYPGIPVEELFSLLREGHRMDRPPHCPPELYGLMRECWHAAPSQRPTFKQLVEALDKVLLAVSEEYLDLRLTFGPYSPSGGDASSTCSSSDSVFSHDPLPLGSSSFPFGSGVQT

[31] = molecular target: Tyrosine-protein kinase JAK3 (Homo sapiens) (UniProt P52333); assay: activity of JAK3(h) at 1.0 µM in the Eurofins Kinase panel
[32] = molecular target: Beta-adrenergic receptor kinase 1 (Homo sapiens) (UniProt P25098); assay: activity of GRK2(h) at 1.0 µM in the Eurofins Kinase panel
[33] = molecular target: CDK18/Cyclin Y (Homo sapiens) (UniProt Q07002+Q8ND76); assay: activity of CDK18/cyclinY(h) at 1.0 µM in the Eurofins Kinase panel; assay type: protein-complex assay
[34] = molecular target: Vascular endothelial growth factor receptor 1 (Homo sapiens) (UniProt P17948); assay: activity of Flt1(h) at 1.0 µM in the Eurofins Kinase panel
[35] = molecular target: Interleukin-1 receptor-associated kinase 4 (Homo sapiens) (UniProt Q9NWZ3); assay: activity of IRAK4(h) at 1.0 µM in the Eurofins Kinase panel
Sequence of Interleukin-1 receptor-associated kinase 4 (Homo sapiens) (Q9NWZ3 whole entry): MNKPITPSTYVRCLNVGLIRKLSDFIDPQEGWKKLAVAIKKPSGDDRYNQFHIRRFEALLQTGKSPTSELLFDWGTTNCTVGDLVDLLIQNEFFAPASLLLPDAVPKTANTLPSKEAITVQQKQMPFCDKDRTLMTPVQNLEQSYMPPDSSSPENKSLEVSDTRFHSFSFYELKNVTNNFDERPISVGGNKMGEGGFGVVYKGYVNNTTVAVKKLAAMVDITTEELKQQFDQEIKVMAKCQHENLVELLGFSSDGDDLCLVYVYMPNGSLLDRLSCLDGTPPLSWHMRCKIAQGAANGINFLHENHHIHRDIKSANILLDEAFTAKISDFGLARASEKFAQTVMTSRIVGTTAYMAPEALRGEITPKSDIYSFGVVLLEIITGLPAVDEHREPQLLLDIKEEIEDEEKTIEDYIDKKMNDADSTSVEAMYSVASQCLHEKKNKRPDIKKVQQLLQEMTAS

[36] = molecular target: Mitogen-activated protein kinase kinase kinase 5 (Homo sapiens) (UniProt Q99683); assay: activity of ASK1(h) at 1.0 µM in the Eurofins Kinase panel
[37] = molecular target: cGMP-dependent protein kinase 2 (Homo sapiens) (UniProt Q13237); assay: activity of PRKG2(h) at 1.0 µM in the Eurofins Kinase panel
[38] = molecular target: LIM domain kinase 1 (Homo sapiens) (UniProt P53667); assay: activity of LIMK1(h) at 1.0 µM in the Eurofins Kinase panel
[39] = molecular target: Serine/threonine-protein kinase pim-2 (Homo sapiens) (UniProt Q9P1W9); assay: activity of Pim-2(h) at 1.0 µM in the Eurofins Kinase panel

activity [1]: 92%
activity [2]: 88%
activity [3]: 111%
activity [4]: 97%
activity [5]: 93%
activity [6]: 86%
activity [7]: 96%
activity [8]: 72%
activity [9]: 115%
activity [10]: 85%
activity [11]: 106%
activity [12]: 101%
activity [13]: 96%
activity [14]: 96%
activity [15]: 103%
activity [16]: 93%
activity [17]: 80%
activity [18]: 81%
activity [19]: 92%
activity [20]: 95%
activity [21]: 97%
activity [22]: 94%
activity [23]: 92%
activity [24]: 71%
activity [25]: 122%
activity [26]: 109%
activity [27]: 91%
activity [28]: 83%
activity [29]: 116%
activity [30]: 114%
activity [31]: 106%
activity [32]: 95%
activity [33]: 94%
activity [34]: 125%
activity [35]: 90%
activity [36]: 100%
activity [37]: 110%
activity [38]: 70%
activity [39]: 117%
Compound: Cc1cc2c(-c3ccc(NC(=O)[C@H](N)CC(C)(C)C)cc3C)ccnc2[nH]1
